In article PMC7083880 (Nature Communications, 2020):

What was measured:
FTSJ1 = biological target: T1, FTSJ1 (Homo sapiens, UniProt Q9UET6); assay: UGA readthrough luciferase assay with FTSJ1 overexpression; type: cell-based
T1 construct: host or cells: HeLa
T1 sequence (Q9UET6 1-329): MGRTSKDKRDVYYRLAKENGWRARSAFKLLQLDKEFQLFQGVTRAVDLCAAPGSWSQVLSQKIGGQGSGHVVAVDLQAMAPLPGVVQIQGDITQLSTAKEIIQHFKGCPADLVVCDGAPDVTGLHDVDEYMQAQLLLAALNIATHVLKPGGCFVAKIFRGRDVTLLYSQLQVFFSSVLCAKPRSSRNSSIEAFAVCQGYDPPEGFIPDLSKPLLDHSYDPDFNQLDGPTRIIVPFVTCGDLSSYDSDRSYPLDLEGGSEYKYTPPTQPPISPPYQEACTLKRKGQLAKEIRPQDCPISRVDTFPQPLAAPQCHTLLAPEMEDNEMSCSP
From the text: (§1) Firefly luciferase from HEK293FT cells transfected with the Fluc-int-UGA construct was immunoprecipitated and digested with trypsin. The MS/MS spectrum of the peptide containing the PTC position and the sequence determination are shown. The upper red and blue sequences indicate the amino acids validated, respectively, by detection of Nter and Cter peptide fragments (b and y ion series). Peptide fragments y6 and y7 clearly identify tryptophan (W) at the PTC position. The black peaks correspond to non-attributed mass-to-charge ratio (m/z) values. […] Readthrough efficiency was determined by measuring luciferase activity in HeLa cells co-transfected with the firefly luciferase construct described in Fig. 1b and with increasing amounts of an expression vector for either FTSJ1 or CTU1 (0.5, 1, or 2 µg). The empty expression vector (E.v.) was used as control. […] The experiment was performed twice and the results of both experiments (Exp1 and Exp2) are shown. c Western blot analysis of FTSJ1 and CTU1. d 2′-O-methylation analysis of tRNA^Trp, tRNA^SER, and tRNA^GLN by RiboMethSeq. […] A molecular weight marker is indicated to the left of each gel. p-values (p) were calculated using Student’s t-test. Source data are provided as a Source Data file.
(§2) Among the enzymes modifying tRNAs liable to recognize a stop codon by extended wobbling, human FTSJ1 (TRM7 in yeast) exclusively modifies tRNAs involved in UGA readthrough. In addition to other tRNA targets, FTSJ1 methylates the cytosine at position 34 of tRNA^Trp. Inhibition of this modification could increase the capacity of tRNA^Trp to misdecode and recognize the UGA stop codon. […] FTSJ1 and CTU1 overexpression were assessed by western-blot analysis (Fig. 5c).

[1] = test system: firefly luciferase construct with UGA PTC in HeLa cells; assay: UGA readthrough luciferase assay with empty expression vector (E.v.) control; type: cell-based, human;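 for luciferase activity, average: DAP exposure for 24 h before luciferase measurement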;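 for luciferase activity, exp2: DAP exposure for 24 h before luciferase measurement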
From the text: as §1, §2

## CN[C@@H]1[C@@H](O)[C@@H](O[C@@H]2[C@@H](O)[C@H](O[C@H]3O[C@H]([C@@H](C)O)[C@@H](O)[C@H](O)[C@H]3N)[C@@H](N)C[C@H]2N)OC[C@]1(C)O [G418, reference compound]
FTSJ1; 0.5µg FTSJ1, 25µM
  luciferase activity, average: 2984.12
  luciferase activity, exp1: 2303.5
  luciferase activity, exp1*1,5: 3455.25
  luciferase activity, exp2: 2513
FTSJ1; 0.5µg FTSJ1, 600µM
  luciferase activity, average: 3518
  luciferase activity, exp1: 2352
  luciferase activity, exp1*1,5: 3528
  luciferase activity, exp2: 3508
FTSJ1; 1µg FTSJ1, 25µM
  luciferase activity, average: 2661.5
  luciferase activity, exp1: 1562
  luciferase activity, exp1*1,5: 2343
  luciferase activity, exp2: 2980
FTSJ1; 1µg FTSJ1, 600µM
  luciferase activity, average: 3066.25
  luciferase activity, exp1: 1933
  luciferase activity, exp1*1,5: 2899.5
  luciferase activity, exp2: 3233
FTSJ1; 2µg FTSJ1, 25µM
  luciferase activity, average: 2020.12
  luciferase activity, exp1: 1256.5
  luciferase activity, exp1*1,5: 1884.75
  luciferase activity, exp2: 2155.5
FTSJ1; 2µg FTSJ1, 600µM
  luciferase activity, average: 2062.5
  luciferase activity, exp1: 1540
  luciferase activity, exp1*1,5: 2310
  luciferase activity, exp2: 1815
[1]; 25µM
  luciferase activity, average: 5230.12
  luciferase activity, exp1: 3250.5
  luciferase activity, exp1*1,5: 4875.75
  luciferase activity, exp2: 5584.5
[1]; 600µM
  luciferase activity, average: 9792.88
  luciferase activity, exp1: 6265.5
  luciferase activity, exp1*1,5: 9398.25
  luciferase activity, exp2: 10187.5
